Reference: patent US20110065628A1, “Medication Combinations for the Treatment of Alcoholism and Drug Addiction” (UNIVERSITY OF VIRGINIA PATENT FOUNDATION, priority 2007, published 2011)
Structures can show the parent of a compound that is named as a salt.

Columns and labels:
[1] = tested on: patients with alcohol and nicotine dependence; assay: Open-label 8 week naltrexone study with coping skills therapy; assay type: in vivo, human; details: naltrexone 50 mg/day, 8 weeks
Source text: In an open-label study, we evaluated the efficacy of naltrexone, an opioid antagonist, in the treatment of alcohol dependence. Since up to 92% of alcoholics are also co-dependent on nicotine, our cohort included dually dependent individuals. […] From a local newspaper advertisement, we enrolled 10 subjects (6 males and 4 females; aged 40±2.56 years) into the study. All patients met DSM III-R criteria for both alcohol and nicotine dependence. Patients were instructed that the goal of treatment was abstinence by the end of the study. Patients received naltrexone (50 mg/day) in unmarked capsules with a riboflavin tracer for an 8 week period. Weekly attendance included combined coping skills therapy for alcohol and nicotine dependence, nursing visits, and completion of rating scales. […] Drop-out rate at 30% was similar to that observed in medication trials for alcoholism. This study supports the clinical evidence that naltrexone is a useful adjunct to Cognitive Behavioral Therapy for the treatment of alcoholism. Naltrexone's effects on cigarette smoking appears small but may warrant further exploration.

[2] = tested on: alcohol consumption (8% w/v) in rhesus monkeys; assay: Naltrexone effect on alcohol drinking, fixed ratio schedule, 3 hour sessions; assay type: in vivo; details: increasing doses of naltrexone 0.1, 0.3, 1.0, 3.0 g/kg; three non food deprived rhesus monkeys
Description: FIG. 3 graphically illustrates the effects of Naltrexone on alcohol consumption in non-human primates (rhesus monkeys). Naltrexone was administered at 0.1 (∘), 0.3 ([…]), 1.0 (□) or 3.0 (▪) […]. The ordinate represents cumulative deliveries as percent change from baseline. The abscissa represents time in 10 minute blocks.
During these 3 hour sessions, both water and alcohol were concurrently available.

[3] = tested on: individuals in alcohol trials; details: cited from earlier work
[4] = tested on: alcohol-preferring (P) rats; assay: Combined topiramate and naltrexone on alcohol consumption; assay type: in vivo
Description: FIG. 8 graphically illustrates the combined effect of topiramate and naltrexone on alcohol consumption in alcohol-preferring (P) rats. Rats received either vehicle, topiramate at 5 mg/kg, topiramate at 10 mg/kg, naltrexone at 1/mg/kg and topiramate at 5 mg/kg, naltrexone at 1/mg/kg and topiramate at 10 mg/kg, or naltrexone at 1 mg/kg. Each data point represents the mean (±SE) of 8 rats as a change from baseline.
No significant differences were observed following vehicle injection. Data are plotted as change from baseline consumption, and each data point represents a mean (±SE) of 8 rats.

[5] = tested on: alcohol-preferring (P) rats; assay: 24-hour-access two-bottle choice alcohol consumption, topiramate, ondansetron, naltrexone; assay type: in vivo
Description: FIG. 10, comprising 5 panels—FIGS. 10A to 10E, graphically illustrates the combined effect of topiramate (10 mg/kg, IP), ondansetron (0.001 mg/kg, IP), and naltrexone (1 mg/kg, IP) on alcohol consumption in alcohol-preferring (P) rats. 10A—Topiramate alone; 10B—Ondansetron alone; 10C—Vehicle; 10D—Topiramate+Ondansetron; 10E—Topiramate+Ondansetron+Naltrexone. Data are plotted across seven consecutive sessions, which include a 3-day baseline period, the test session in which the ondansetron, topiramate, and naltrexone injection was administered, and the three sessions that followed the test session. Each data point represents a mean (±SE) of at least six rats. The ordinate represents ethanol intake in g/kg and the abscissa represents session number.
The effects of ondansetron, topiramate, and naltrexone, medications shown to be efficacious in treating alcohol-dependent humans, on measures of alcohol dependence were determined in animal models in order to determine whether these medications may produce additive effects when combined. The experiments examined their ability to modulate total consumption under a 24-hour-access two-bottle choice procedure wherein rats had unlimited access to alcohol solutions (10%) and water. […]

EOA and LOA alcoholics = details: EOA compared with LOA; 1, 4, 16 μg/kg twice daily, particularly 4 μg/kg; cited from earlier work
alcoholics (EOA and LOA) = assay: 11-week double-blind ondansetron trial with weekly Cognitive Behavioral Therapy; assay type: in vivo, human; details: for Drinks/Day / Drinks/Drinking Day: at endpoint; for Drinks/Day: placebo 3.30; for Drinks/Drinking Day: placebo 6.90
Source text: It was hypothesized herein that the drinking outcomes of EOA, compared with LOA, would be more improved by the selective serotonin antagonist, ondansetron. EOA differ from LOA by having greater serotonergic abnormality, an earlier age of onset, and antisocial behaviors. Thus, EOA may be especially responsive to treatment with a selective serotonergic agent.
The design was as follows: 321 alcoholics (EOA=161; LOA=160; mean age 40.6 years; 70.5% male, and 78.6% white) received one lead in week of single-blind placebo followed by 11 weeks of double-blind outpatient treatment using a 2×4 factorial design which examined age of onset (EOA vs. LOA) and medication dose (placebo, or ondansetron 1, 4, or 16 μg/kg b.i.d) combined with weekly standardized group Cognitive Behavioral Therapy. Efficacy measures were: 1) Self reported drinking (Drinks/Day, Drinks/Drinking Day, Percent Days Abstinent, and Total Days Abstinent/study week), and 2) plasma Carbohydrate Deficient Transferrin level (CDT).

[6] = tested on: patients with alcoholism (DSM III-R); assay: 12-week outpatient placebo-controlled ritanserin trial with Cognitive Behavioral Therapy; assay type: in vivo, human; details: ritanserin 2.5 mg or 5 mg, 12 weeks
Description: FIG. 5 graphically illustrates the effects of treatment with Ritanserin in conjunction with Cognitive Behavioral Therapy. The ordinate represents the mean number of drinks since the last visit and the abscissa indicates the time period of assessment in the study (in weeks). Subjects were treated with 2.5 mg Ritanserin ([…]), 5.0 mg Ritanserin ? or received placebo (▴).
In this study, we examined the efficacy of ritanserin on alcohol consumption in a 12-week, outpatient, placebo-controlled clinical trial. This study overlapped in time and recruitment effort with the ondansetron study described above. Therefore, our research group has the expertise to conduct multiple treatment studies simultaneously. Fifty-four patients from our center who met DSM III-R criteria for alcoholism participated and were randomized to receive placebo, 2.5 mg, or 5 mg of ritanserin. All patients received standardized manual driven Cognitive Behavioral Therapy for alcoholism. Cognitive Behavioral Therapy was conducted by counselors with extensive experience with behavioral treatments, and over 500 therapy hours were logged. […] There was no within time effect nor group interaction. Similarly, there was no difference in craving between the treatment groups.

[7] = tested on: alcohol-dependent men and women; details: topiramate up to 300 mg per day, 12 weeks; cited from earlier work
[8] = tested on: individuals who take topiramate; details: cited from earlier work
[9] = EOA, ondansetron 1 μg/kg b.i.d, p<0.05
[10] = EOA, ondansetron 4 μg/kg b.i.d, p<0.05
[11] = N=321, 88 received the 4 μg/kg dose

Question: For `O=C1CC[C@@]2(O)[C@H]3Cc4ccc(O)c5c4[C@@]2(CCN3CC2CC2)[C@H]1O5` [naltrexone, 17-(Cyclopropylmethyl)-4,5 a-epoxy-3,14-dihydroxymorphinan-6-one hydrochloride], which nicotine withdrawal symptoms [1] is on record?
Answer: No patient reported clinically significant nicotine withdrawal symptoms

Question: What about the alcohol consumption ([1]; before 3.29±2.16 drinks/day, p<0.05) of the same compound?
Answer: 2.16±1.88 drinks/day

Question: And the smoking ([1]; before 21.10±5.57 cigarettes/day)?
Answer: 15.93±3.09 cigarette/day

Question: What about the alcohol consumption [2] of the same compound?
Answer: dose-dependent decreases

Question: And the “rate of subject withdrawal due to naltrexone induced nausea” value ([3]; Croop and Colleagues, 570 received naltrexone)?
Answer: 15%

Question: What about the “individuals unable to tolerate naltrexone” value ([3]; naltrexone dose of 50 mg/day) of the same compound?
Answer: about 15%

Question: What about the “alcohol consumption, change from baseline” value ([4]; naltrexone alone, 1 mg/kg intraperitoneally) of the same compound?
Answer: did not affect alcohol consumption on its own

Question: For `Cc1nccn1CC1CCc2c(c3ccccc3n2C)C1=O` (stereo not shown) [ondansetron, 9-methyl-3-[(2-methyl-1H-imidazol-1-yl)methyl]-1,2,3,9-tetrahydrocarbazol-4-one], which alcohol consumption ([5]; ondansetron alone 0.001 mg/kg intraperitoneally (FIG. 10B)) is on record?
Answer: did not affect alcohol consumption on its own

Question: What about the drinking (EOA and LOA alcoholics) of the same compound?
Answer: significant reductions in drinking

Question: What about the Drinks/Day (alcoholics (EOA and LOA); [9]) of the same compound?
Answer: 1.89

Question: And the “Drinks/Drinking Day” value (alcoholics (EOA and LOA); [9])?
Answer: 4.75

Question: What about the “mean log CDT ratio between endpoint and enrollment” value (alcoholics (EOA and LOA); EOA, ondansetron 1 μg/kg b.i.d, placebo +0.11, p<0.05) of the same compound?
Answer: −0.17

Question: What about the Drinks/Day (alcoholics (EOA and LOA); [10]) of the same compound?
Answer: 1.56

Question: And the “Drinks/Drinking Day” value (alcoholics (EOA and LOA); [10])?
Answer: 4.28

Question: And the “Drinking outcomes in LOA” value (alcoholics (EOA and LOA); LOA)?
Answer: not improved substantially

Question: And the nausea (alcoholics (EOA and LOA); [11])?
Answer: nausea was not reported

Question: What about the side-effects vs. placebo (alcoholics (EOA and LOA); [11]) of the same compound?
Answer: no side-effect was reported more often than placebo

Question: And the “Total Days Abstinent/study week” value (alcoholics (EOA and LOA); ondansetron 4 μg/kg b.i.d, placebo 5.92, p<0.05)?
Answer: 6.74

Question: What about the “Percent Days Abstinent” value (alcoholics (EOA and LOA); ondansetron 4 μg/kg b.i.d, placebo 50.20, p<0.05) of the same compound?
Answer: 70.10

Question: What does the source list for `Cc1nc2sccn2c(=O)c1CCN1CCC(=C(c2ccc(F)cc2)c2ccc(F)cc2)CC1` [ritanserin]?
Answer: alcohol consumption [6]: no clinically significant effect; craving [6]: no clinically significant effect

Question: For `CC1(C)O[C@@H]2[C@@H](CO[C@@]3(COS(N)(=O)=O)OC(C)(C)O[C@@H]23)O1` [topiramate, 2,3:4,5-Bis-O-(1-methylethylidene)-beta-D-fructopyranose sulfamate], which craving vs. placebo [7] is on record?
Answer: significantly less craving

Question: And the “days of abstinence vs. placebo” value [7]?
Answer: significantly more days of abstinence

Question: And the “drinks per day, drinking days, drinks per drinking day vs. placebo” value [7]?
Answer: significantly fewer drinks per day, drinking days, and drinks per drinking day

Question: What about the “decrease in alcohol consumption from baseline” value ([5]; topiramate alone 10 mg/kg intraperitoneally (FIG. 10A)) of the same compound?
Answer: 12%±8%

Question: What about the “alcohol consumption, change from baseline” value ([4]; topiramate alone, 10 mg/kg intraperitoneally, effect not yet significant) of the same compound?
Answer: only modestly decreased alcohol consumption

Question: And the “cognitive impairment, reported rate” value ([8]; general population)?
Answer: 2.4%

Question: What about the “cognitive impairment, occurrence rate” value ([8]; substance abuse field) of the same compound?
Answer: about 18.7%
